# In patent publication US10800791B2, “Triazole ACC inhibitors and uses thereof” (Gilead Apollo, LLC, priority 2015, dated 2020):
# Like-named read-outs stand apart in the source and are kept apart here.
# Assays:
# Rhizoctonia solani (Rs) = experiment: Growth inhibition assay of fungal pathogens, Rs; assay type: cell-based; details: 48 h
# C. parapsilosis = experiment: Antifungal Activity Assay (broth microtiter MIC), C. parapsilosis; assay type: cell-based, Candida parapsilosis; details: Lodderomyces parapsilosis, ATCC22019, 48 h
# Summary of the method: (§1)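 Colonies from 24 h Sabouraud dextrose agar plates (35° C) are suspended in RPMI 1640+MOPS and diluted to give 2.5×10^3 CFU/mL in the wells. Plates are set up per CLSI M27-A3. Visual MIC is recorded at 48 h.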
# Septoria tritici (St) = experiment: Growth inhibition assay of fungal pathogens, St; assay type: cell-based; details: Zymoseptoria tritici, 48 h, growth inhibition at 48 hours vs 2% DMSO control
# Summary of the method: (§2)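 Pathogen growth in 17% V8 broth is measured by OD600 at 24 and 48 hours, after blank subtraction, in the presence of compound at 50, 10 and 2 ppm or 2, 0.4 and 0.08 ppm. Inhibition in percent comes from 48-hour readings against the DMSO control.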
# Botrtyis cinerea (Bc) = experiment: Growth inhibition assay of fungal pathogens, Bc; assay type: cell-based; details: growth inhibition at 48 hours vs 2% DMSO control; for IC90: 48 h
# Summary of the method: as §2
# C. albicans = experiment: Antifungal Activity Assay (broth microtiter MIC), C. albicans; assay type: cell-based, Candida albicans; details: Candida albicans, ATCC90028, 48 h
# Summary of the method: as §1
# fungal (fACC2) = fungal (fACC2) (UniProt Q00955); details: read-out: fACC2 (in vitro ACC2 Inhibition Assay, IC50), ADP-Glo, 5 nM ACC2, 20 μM ATP, 20 μM acetyl-CoA
# Sequence of fungal (fACC2) (Q00955 whole entry): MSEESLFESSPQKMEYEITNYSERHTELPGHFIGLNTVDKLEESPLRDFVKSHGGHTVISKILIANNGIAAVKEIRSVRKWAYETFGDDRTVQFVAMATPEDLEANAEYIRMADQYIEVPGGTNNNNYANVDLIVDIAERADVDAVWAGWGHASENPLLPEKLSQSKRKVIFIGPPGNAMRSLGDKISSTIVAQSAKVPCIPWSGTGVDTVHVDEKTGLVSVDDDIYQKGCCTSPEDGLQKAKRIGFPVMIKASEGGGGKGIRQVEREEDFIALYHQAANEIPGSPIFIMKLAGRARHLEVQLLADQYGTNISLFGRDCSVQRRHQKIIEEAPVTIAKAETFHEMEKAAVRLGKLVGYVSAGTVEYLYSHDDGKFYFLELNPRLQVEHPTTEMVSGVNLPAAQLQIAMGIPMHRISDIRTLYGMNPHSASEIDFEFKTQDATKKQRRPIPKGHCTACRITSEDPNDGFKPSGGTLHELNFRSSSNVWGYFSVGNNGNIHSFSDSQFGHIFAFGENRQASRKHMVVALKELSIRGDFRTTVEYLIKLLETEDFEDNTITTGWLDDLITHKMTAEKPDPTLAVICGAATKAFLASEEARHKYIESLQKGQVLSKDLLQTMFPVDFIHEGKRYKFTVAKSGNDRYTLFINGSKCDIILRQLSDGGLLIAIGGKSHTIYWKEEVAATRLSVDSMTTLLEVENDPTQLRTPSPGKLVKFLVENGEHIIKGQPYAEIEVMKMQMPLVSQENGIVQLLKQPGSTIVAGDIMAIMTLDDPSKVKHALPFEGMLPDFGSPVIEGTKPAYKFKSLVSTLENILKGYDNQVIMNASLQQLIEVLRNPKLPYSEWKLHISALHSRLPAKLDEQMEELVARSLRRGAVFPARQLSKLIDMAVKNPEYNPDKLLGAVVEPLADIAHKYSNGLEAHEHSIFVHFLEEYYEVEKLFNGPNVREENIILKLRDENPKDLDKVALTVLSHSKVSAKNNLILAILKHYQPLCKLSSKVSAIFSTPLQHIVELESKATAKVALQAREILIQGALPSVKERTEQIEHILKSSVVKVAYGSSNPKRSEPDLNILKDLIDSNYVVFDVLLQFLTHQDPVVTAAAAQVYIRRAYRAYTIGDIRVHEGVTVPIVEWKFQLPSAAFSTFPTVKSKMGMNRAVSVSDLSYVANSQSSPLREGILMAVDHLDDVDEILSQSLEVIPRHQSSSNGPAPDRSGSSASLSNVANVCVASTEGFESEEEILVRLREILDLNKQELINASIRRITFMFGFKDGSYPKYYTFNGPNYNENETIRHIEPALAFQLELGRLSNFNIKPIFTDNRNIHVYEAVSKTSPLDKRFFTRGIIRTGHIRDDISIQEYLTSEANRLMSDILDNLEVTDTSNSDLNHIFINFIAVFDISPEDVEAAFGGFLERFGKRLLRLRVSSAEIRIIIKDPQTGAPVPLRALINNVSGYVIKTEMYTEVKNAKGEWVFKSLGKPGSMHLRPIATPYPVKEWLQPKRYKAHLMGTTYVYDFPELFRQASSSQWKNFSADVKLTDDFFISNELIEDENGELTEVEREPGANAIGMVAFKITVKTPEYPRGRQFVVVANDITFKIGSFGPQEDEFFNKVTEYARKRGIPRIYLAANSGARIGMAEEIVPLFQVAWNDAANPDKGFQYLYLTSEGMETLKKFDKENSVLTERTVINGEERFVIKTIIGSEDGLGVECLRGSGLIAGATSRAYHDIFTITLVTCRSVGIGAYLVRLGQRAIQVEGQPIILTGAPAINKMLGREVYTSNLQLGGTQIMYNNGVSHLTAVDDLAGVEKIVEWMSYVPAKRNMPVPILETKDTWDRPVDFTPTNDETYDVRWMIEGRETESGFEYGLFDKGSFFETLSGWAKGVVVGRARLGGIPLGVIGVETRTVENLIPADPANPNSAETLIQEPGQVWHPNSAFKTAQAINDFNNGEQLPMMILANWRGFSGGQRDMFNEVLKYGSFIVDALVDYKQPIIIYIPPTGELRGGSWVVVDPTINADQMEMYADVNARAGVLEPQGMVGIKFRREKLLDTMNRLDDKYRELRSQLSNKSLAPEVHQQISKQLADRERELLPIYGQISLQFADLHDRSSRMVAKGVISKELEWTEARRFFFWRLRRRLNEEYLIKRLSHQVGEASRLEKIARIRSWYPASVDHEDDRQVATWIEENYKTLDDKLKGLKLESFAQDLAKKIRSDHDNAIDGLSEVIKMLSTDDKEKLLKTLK
# [1] = test system: Fusarium virguliforme (Fv); experiment: Growth inhibition assay of fungal pathogens, Fv; assay type: cell-based; details: for IC90: 48 h
# Summary of the method: as §2
# C. krusei = experiment: Antifungal Activity Assay (broth microtiter MIC), C. krusei; assay type: cell-based, Candida krusei; details: Pichia kudriavzevii, ATCC6258, 48 h
# Summary of the method: as §1
# [2] = test system: Collectotrichum graminicola (Cg); experiment: Growth inhibition assay of fungal pathogens, Cg; assay type: cell-based; details: growth inhibition at 48 hours vs 2% DMSO control; for IC90: 48 h
# Summary of the method: as §2
# Diplodia maydis (Dm) = experiment: Growth inhibition assay of fungal pathogens, Dm; assay type: cell-based; details: Stenocarpella maydis, 48 h, growth inhibition at 48 hours vs 2% DMSO control
# Summary of the method: as §2
# [3] = test system: Phytophthora capsici (Pc); experiment: Growth inhibition assay of fungal pathogens, Pc; assay type: cell-based; details: 48 h
# Summary of the method: as §2
# [4] = test system: Fusarium moniliforme (Fm); experiment: Growth inhibition assay of fungal pathogens, Fm; assay type: cell-based; details: for IC90: Fusarium verticillioides, 48 h, read-out: Concentration at 90% Inhibition Fm
# Summary of the method: as §2
# human (hACC2) = human (hACC2) (Homo sapiens, UniProt O00763); experiment: In vitro ACC inhibition assay (ADP-Glo), hACC2; assay type: biochemical; details: 5 nM ACC2, 20 μM ATP, 20 μM acetyl-CoA
# Sequence of human (hACC2) (O00763 whole entry): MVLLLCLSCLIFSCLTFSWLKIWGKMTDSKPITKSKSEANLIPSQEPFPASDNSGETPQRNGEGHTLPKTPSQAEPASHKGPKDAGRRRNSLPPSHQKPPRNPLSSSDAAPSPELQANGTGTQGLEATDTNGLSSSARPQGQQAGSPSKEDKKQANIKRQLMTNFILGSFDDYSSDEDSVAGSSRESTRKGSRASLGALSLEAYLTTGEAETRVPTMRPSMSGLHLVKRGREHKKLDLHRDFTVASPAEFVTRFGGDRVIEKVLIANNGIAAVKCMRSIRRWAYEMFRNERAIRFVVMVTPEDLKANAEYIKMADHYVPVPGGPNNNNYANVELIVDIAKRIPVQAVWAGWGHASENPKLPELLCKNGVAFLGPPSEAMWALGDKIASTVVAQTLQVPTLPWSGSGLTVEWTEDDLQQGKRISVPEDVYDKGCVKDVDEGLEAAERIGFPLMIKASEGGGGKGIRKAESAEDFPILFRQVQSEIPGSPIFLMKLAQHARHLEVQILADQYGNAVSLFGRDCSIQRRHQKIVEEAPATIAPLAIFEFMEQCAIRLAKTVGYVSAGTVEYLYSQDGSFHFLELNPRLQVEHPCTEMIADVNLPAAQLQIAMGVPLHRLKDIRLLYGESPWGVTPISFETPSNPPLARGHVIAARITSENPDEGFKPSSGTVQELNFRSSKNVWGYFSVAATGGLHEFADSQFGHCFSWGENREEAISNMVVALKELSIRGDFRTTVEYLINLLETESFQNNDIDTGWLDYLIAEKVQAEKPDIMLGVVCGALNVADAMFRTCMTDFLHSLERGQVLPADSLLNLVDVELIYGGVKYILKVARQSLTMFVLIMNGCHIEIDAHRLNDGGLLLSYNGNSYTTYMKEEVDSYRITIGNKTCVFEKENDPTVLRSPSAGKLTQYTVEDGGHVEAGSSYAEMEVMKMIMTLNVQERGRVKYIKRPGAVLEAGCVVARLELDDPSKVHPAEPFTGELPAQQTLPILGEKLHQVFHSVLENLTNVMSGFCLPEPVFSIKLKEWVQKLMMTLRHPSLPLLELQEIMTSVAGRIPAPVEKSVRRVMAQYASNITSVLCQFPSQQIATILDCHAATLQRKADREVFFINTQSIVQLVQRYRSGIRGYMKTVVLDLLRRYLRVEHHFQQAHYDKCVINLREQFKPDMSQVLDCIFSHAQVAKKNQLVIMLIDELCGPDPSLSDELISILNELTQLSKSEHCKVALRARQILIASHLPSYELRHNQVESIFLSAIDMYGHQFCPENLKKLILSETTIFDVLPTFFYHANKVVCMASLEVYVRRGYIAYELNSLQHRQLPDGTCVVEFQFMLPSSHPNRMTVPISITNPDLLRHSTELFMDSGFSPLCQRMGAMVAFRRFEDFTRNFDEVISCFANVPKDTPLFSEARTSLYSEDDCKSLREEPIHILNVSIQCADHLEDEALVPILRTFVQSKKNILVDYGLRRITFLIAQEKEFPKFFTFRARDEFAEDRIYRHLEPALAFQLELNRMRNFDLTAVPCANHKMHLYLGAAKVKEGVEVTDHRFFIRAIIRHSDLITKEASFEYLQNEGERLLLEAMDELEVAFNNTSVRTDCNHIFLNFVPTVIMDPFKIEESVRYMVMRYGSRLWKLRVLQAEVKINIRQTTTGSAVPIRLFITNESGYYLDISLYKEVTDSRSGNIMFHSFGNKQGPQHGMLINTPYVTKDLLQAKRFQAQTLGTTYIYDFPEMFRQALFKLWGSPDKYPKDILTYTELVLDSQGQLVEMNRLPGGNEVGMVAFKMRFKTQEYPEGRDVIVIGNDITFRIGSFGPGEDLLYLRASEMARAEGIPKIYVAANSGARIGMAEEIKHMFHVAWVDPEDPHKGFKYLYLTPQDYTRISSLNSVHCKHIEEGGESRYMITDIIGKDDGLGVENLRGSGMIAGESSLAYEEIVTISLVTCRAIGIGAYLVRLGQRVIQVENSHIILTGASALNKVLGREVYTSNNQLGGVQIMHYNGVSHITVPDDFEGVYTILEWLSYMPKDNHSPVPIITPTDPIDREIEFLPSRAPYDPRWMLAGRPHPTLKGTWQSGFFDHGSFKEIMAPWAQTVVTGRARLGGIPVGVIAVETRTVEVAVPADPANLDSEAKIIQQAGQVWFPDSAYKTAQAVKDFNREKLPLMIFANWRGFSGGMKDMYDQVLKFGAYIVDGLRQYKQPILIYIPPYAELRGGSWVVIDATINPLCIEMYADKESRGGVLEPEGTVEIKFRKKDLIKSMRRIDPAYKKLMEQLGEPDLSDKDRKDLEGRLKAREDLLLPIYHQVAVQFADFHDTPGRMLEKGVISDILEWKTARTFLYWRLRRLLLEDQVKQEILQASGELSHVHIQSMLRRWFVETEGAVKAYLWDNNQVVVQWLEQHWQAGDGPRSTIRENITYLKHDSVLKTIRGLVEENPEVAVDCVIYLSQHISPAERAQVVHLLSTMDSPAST
# Experimental: The detailed procedure is as follows. […] 10 μL ADP glo reagent was added. […] 20 μL kinase detection reagent was added.
# [5] = mycelial plugs, growth inhibition at 48 hours vs 2% DMSO control, read-out: Concentration at 90% Inhibition Rs
# [6] = Table 3a, ATCC 22019, 3 replicates, MIC recorded at 48 h, read-out: MIC, C. parapsilosis ATCC 22019
# [7] = Table 3b (additional results), ATCC 22019, 3 replicates, MIC recorded at 48 h, read-out: MIC, C. parapsilosis ATCC 22019
# [8] = Septoria tritici, read-out: Concentration at 90% Inhibition St
# [9] = Botrtyis cinerea, read-out: Concentration at 90% Inhibition Bc
# [10] = Table 3a, ATCC 90028, 3 replicates, MIC recorded at 48 h, read-out: MIC, C. albicans ATCC 90028
# [11] = Table 3b (additional results), ATCC 90028, 3 replicates, MIC recorded at 48 h, read-out: MIC, C. albicans ATCC 90028
# [12] = growth inhibition at 48 hours vs 2% DMSO control, read-out: Concentration at 90% Inhibition Fv
# [13] = Table 3a, ATCC 6258, 3 replicates, MIC recorded at 48 h, read-out: MIC, C. krusei ATCC 6258
# [14] = Table 3b (additional results), ATCC 6258, 3 replicates, MIC recorded at 48 h, read-out: MIC, C. krusei ATCC 6258
# [15] = Collectotrichum graminicola, read-out: Concentration at 90% Inhibition Cg
# [16] = Diplodia maydis, read-out: Concentration at 90% Inhibition Dm
# [17] = growth inhibition at 48 hours vs 2% DMSO control, read-out: Concentration at 90% Inhibition Pc
# [18] = Fusarium moniliforme, growth inhibition at 48 hours vs 2% DMSO control
# [19] = read-out: Concentration at 90% Inhibition Rs, Rhizoctonia solani, mycelial plugs, growth inhibition at 48 hours vs 2% DMSO control
# [20] = read-out: MIC, C. parapsilosis ATCC 22019, Table 3b (additional results), 3 replicates, MIC recorded at 48 h
# [21] = read-out: Concentration at 90% Inhibition St, Septoria tritici
# [22] = read-out: Concentration at 90% Inhibition Bc, Botrtyis cinerea
# [23] = read-out: MIC, C. albicans ATCC 90028, Table 3b (additional results), 3 replicates, MIC recorded at 48 h
# [24] = read-out: Concentration at 90% Inhibition Fv, Fusarium virguliforme, growth inhibition at 48 hours vs 2% DMSO control
# [25] = read-out: MIC, C. krusei ATCC 6258, Table 3b (additional results), 3 replicates, MIC recorded at 48 h
# [26] = read-out: Concentration at 90% Inhibition Cg, Collectotrichum graminicola
# [27] = read-out: Concentration at 90% Inhibition Dm, Diplodia maydis
# [28] = read-out: Concentration at 90% Inhibition Pc, Phytophthora capsici, growth inhibition at 48 hours vs 2% DMSO control
SMILES,IC90 (Rhizoctonia solani (Rs); [5]),MIC (C. parapsilosis; [6]),MIC (C. parapsilosis; [7]),IC90 (Septoria tritici (St); [8]),IC90 (Botrtyis cinerea (Bc); [9]),MIC (C. albicans; [10]),MIC (C. albicans; [11]),IC50 (fungal (fACC2); Table 2a),"IC50 (fungal (fACC2); Table 2b, additional results)","IC90 [1, 12]",MIC (C. krusei; [13]),MIC (C. krusei; [14]),"IC90 [2, 15]",IC90 (Diplodia maydis (Dm); [16]),"IC90 [3, 17]","IC90 [4, 18]",IC50 (human (hACC2); Table 2a),"IC50 (human (hACC2); Table 2b, additional results)",further results
COc1ccc(F)cc1[C@H](Cn1c(=O)n(C(C)(C)C(=O)NC(C)C)c(=O)c2c(C)c(-n3nccn3)sc21)OC[C@H](C)C#N [Compound I-151],0.08 µg/mL,0.25 to 1 µg/mL,0.25 to 1 µg/mL,> 50 µg/mL,0.4 µg/mL,0.25 to 1 µg/mL,0.25 to 1 µg/mL,0.4 to 1 nM,0.3 to 1 nM,0.4 µg/mL,0.25 to 1 µg/mL,0.25 to 1 µg/mL,0.08 µg/mL,0.08 µg/mL,> 50 µg/mL,0.08 µg/mL,5 to 10 nM,1 to 5 nM,–
COc1ccc(F)cc1[C@H](Cn1c(=O)n(C(C)(C)C(=O)NC(C)C)c(=O)c2c(C)c(-n3nccn3)sc21)OC[C@@H](C)C#N [Compound I-150],0.08 µg/mL,0.25 to 1 µg/mL,0.25 to 1 µg/mL,> 50 µg/mL,0.4 µg/mL,0.25 to 1 µg/mL,0.25 to 1 µg/mL,0.4 to 1 nM,0.3 to 1 nM,0.4 µg/mL,0.25 to 1 µg/mL,0.25 to 1 µg/mL,0.08 µg/mL,0.08 µg/mL,> 50 µg/mL,0.08 µg/mL,1 to 5 nM,1 to 5 nM,–
COc1ccc(F)cc1[C@@](C)(Cn1c(=O)n(C(C)(C)C(=O)NC(C)C)c(=O)c2c(C)c(-n3nccn3)sc21)OCCC#N [Compound I-230],0.08 µg/mL,–,1.01 to 2 µg/mL,> 50 µg/mL,0.4 µg/mL,–,0.25 to 1 µg/mL,–,0.3 to 1 nM,0.4 µg/mL,–,0.25 to 1 µg/mL,0.08 µg/mL,0.4 µg/mL,2 µg/mL,0.08 µg/mL,–,10 to 40 nM,–
COc1ccc(F)cc1CCn1c(=O)n(C(C)(C)C(=O)NC(C)C)c(=O)c2c(C)c(-n3nccn3)sc21 [Compound I-266],2 µg/mL,–,1.01 to 2 µg/mL,> 50 µg/mL,–,–,1.01 to 2 µg/mL,–,1 to 5 nM,–,–,0.25 to 1 µg/mL,–,10 µg/mL,> 50 µg/mL,–,–,5 to 10 nM,"Concentration at 90% Inhibition Bc (Botrtyis cinerea (Bc); Botrtyis cinerea): B (compound concentration of 2.0 ppm at 90% inhibition of fungal pathogens); Concentration at 90% Inhibition Fv ([1]; growth inhibition at 48 hours vs 2% DMSO control): B (compound concentration of 2.0 ppm at 90% inhibition of fungal pathogens); Concentration at 90% Inhibition Cg ([2]; Collectotrichum graminicola): B (compound concentration of 2.0 ppm at 90% inhibition of fungal pathogens); Concentration at 90% Inhibition Fm [4, 18]: B (compound concentration of 2.0 ppm at 90% inhibition of fungal pathogens)"
COc1ccc(F)cc1[C@H](Cn1c(=O)n([C@H](C)C(=O)N(C)C(C)C)c(=O)c2c(C)c(-n3nccn3)sc21)OCCC#N [Compound I-139],0.08 µg/mL,1.1 to 2 µg/mL,2.01 to 4 µg/mL,> 50 µg/mL,0.4 µg/mL,0.25 to 1 µg/mL,2.01 to 4 µg/mL,5 to 10 nM,1 to 5 nM,0.4 µg/mL,0.25 to 1 µg/mL,2.01 to 4 µg/mL,0.4 µg/mL,0.08 µg/mL,> 50 µg/mL,0.4 µg/mL,5 to 10 nM,1 to 5 nM,–
CCNC(=O)[C@@H](C)n1c(=O)c2c(C)c(-n3nccn3)sc2n(C[C@H](OCCC#N)c2cc(F)ccc2OC)c1=O [Compound I-252],0.08 µg/mL,–,2.01 to 4 µg/mL,> 50 µg/mL,2 µg/mL,–,> 4.01 µg/mL,–,1 to 5 nM,0.4 µg/mL,–,> 4.01 µg/mL,0.08 µg/mL,0.4 µg/mL,10 µg/mL,0.08 µg/mL,–,1 to 5 nM,–
COc1ccc(F)cc1[C@@](O)(CCO)Cn1c(=O)n(C(C)(C)C(=O)NC(C)C)c(=O)c2c(C)c(-n3nccn3)sc21 [Compound I-231],–,–,–,–,–,–,–,–,1 to 5 nM,–,–,–,–,–,–,–,–,10 to 40 nM,"IC90 (Rhizoctonia solani (Rs); [19]): 0.08 µg/mL; MIC (C. parapsilosis; [20]): 1.01 to 2 µg/mL; IC90 (Septoria tritici (St); [21]): > 50 µg/mL; IC90 (Botrtyis cinerea (Bc); [22]): 2 µg/mL; MIC (C. albicans; [23]): 0.06 to 0.249 µg/mL; IC90 [1, 24]: 2 µg/mL; MIC (C. krusei; [25]): 0.06 to 0.249 µg/mL; IC90 [2, 26]: 2 µg/mL; IC90 (Diplodia maydis (Dm); [27]): 2 µg/mL; IC90 [3, 28]: 10 µg/mL; IC90 [4]: 0.4 µg/mL"
COc1ccc(F)cc1[C@H](Cn1c(=O)n(C(C)(C)C(=O)NC(C)C)c(=O)c2c(C)c(-n3nccn3)sc21)OCCC(=O)NO [Compound I-218],–,–,–,–,–,–,–,–,1 to 5 nM,–,–,–,–,–,–,–,–,10 to 40 nM,"IC90 (Rhizoctonia solani (Rs); [19]): 2 µg/mL; MIC (C. parapsilosis; [20]): 0.25 to 1 µg/mL; IC90 (Septoria tritici (St); [21]): > 50 µg/mL; IC90 (Botrtyis cinerea (Bc); [22]): 2 µg/mL; MIC (C. albicans; [23]): 0.25 to 1 µg/mL; IC90 [1, 24]: 2 µg/mL; MIC (C. krusei; [25]): 0.25 to 1 µg/mL; IC90 [2, 26]: 10 µg/mL; IC90 (Diplodia maydis (Dm); [27]): 10 µg/mL; IC90 [3, 28]: > 50 µg/mL; IC90 [4]: 2 µg/mL"
COc1ccc(F)cc1[C@H](Cn1c(=O)n([C@@H](C)C(N)=O)c(=O)c2c(C)c(-n3nccn3)sc21)OCC(C)(C)C#N [Compound I-213],> 50 µg/mL,–,2.01 to 4 µg/mL,> 50 µg/mL,> 50 µg/mL,–,0.25 to 1 µg/mL,–,1 to 5 nM,> 50 µg/mL,–,> 4.01 µg/mL,> 50 µg/mL,> 50 µg/mL,> 50 µg/mL,10 µg/mL,–,5 to 10 nM,–
COc1ccc(F)cc1[C@H](Cn1c(=O)n([C@@H](C)C(=O)N(C)C(C)C)c(=O)c2c(C)c(-n3nccn3)sc21)OCCC#N [Compound I-188],2 µg/mL,–,2.01 to 4 µg/mL,> 50 µg/mL,2 µg/mL,–,2.01 to 4 µg/mL,–,0.3 to 1 nM,2 µg/mL,–,2.01 to 4 µg/mL,10 µg/mL,2 µg/mL,> 50 µg/mL,0.4 µg/mL,–,5 to 10 nM,–
